One data set in a line: solubility. Format: physicochemical. Particulars: for solubility of the acetate: acetate of the peptide; for solubility of the trichloracetate: trichloracetate of the peptide.
Data set [1] is described as follows: stability towards mild oxidation with performic acid. Type of data set: physicochemical. The protocol:
b. 80 g of Bio-gel P6 are allowed to swell overnight in 0.1N-formic acid, then filled into a chromatography tube (internal diameter 2.5 cm) up to a height of 94 cm (when it has settled; total volume of the gel bed, 460 ml). 600 mg of the crude product obtained as described under (a) above are dissolved in 20 ml of 0.1N-formic acid, the solution poured on to the gel column, and eluted with 0.1N-formic acid. The eluate is passed through a recording UV percolation photometer (254 nm) and collected in fractions of 15 ml each. The eluates are analyzed by thin-layer chromatography over Sephadex G 25 (superfine) (registered Trade Mark) in 0.1N-formic acid (with chlorine/tolidine reagent), and tested biologically. The maximum activity is found in an eluate volume corresponding to 0.8 column volume. The fractions are lyophilized individually and yield 70% of the total activity; the best fractions have an activity of 40 MRC units/mg. The molecular weight of these active substances is below 5000. The product can be further purified by counter-current distribution and/or gel chromatography. For this purpose, batches of 2-5 g of the enriched material are subjected to counter-current distribution over 250-300 stages in the system n-butanol:methanol:0.1N-acetic acid (4:1:5). […]

Positions of bridges follow the written chain, without caps; N, C: chain ends. Non-standard residues stand in square brackets, D forms with d. Residues, ends and D or L forms follow the SMILES beside them. Met(O) = CS(=O)CC[C@H](N)C(=O)O

Turning to `CC(C)C[C@H](NC(=O)[C@H](CC(N)=O)NC(=O)[C@H](CCCNC(=N)N)NC(=O)[C@H](Cc1c[nH]c2ccccc12)NC(=O)[C@H](Cc1ccc(O)cc1)NC(=O)[C@H](C)NC(=O)[C@H](CO)NC(=O)[C@H](CC(C)C)NC(=O)[C@@H](NC(=O)[C@@H]1CSSC[C@H](N)C(=O)N[C@@H](CO)C(=O)N[C@@H](CC(N)=O)C(=O)N[C@@H](CC(C)C)C(=O)N[C@@H](CO)C(=O)N[C@@H]([C@@H](C)O)C(=O)N1)C(C)C)C(=O)N[C@@H](CC(N)=O)C(=O)N[C@@H](CC(N)=O)C(=O)N[C@@H](Cc1ccccc1)C(=O)N[C@@H](Cc1c[nH]cn1)C(=O)N[C@@H](CCCNC(=N)N)C(=O)N[C@@H](Cc1ccccc1)C(=O)N[C@@H](CO)C(=O)NCC(=O)N[C@@H](CC[S+](C)[O-])C(=O)NCC(=O)N[C@@H](Cc1ccccc1)C(=O)NCC(=O)N1CCC[C@H]1C(=O)N[C@@H](CCC(=O)O)C(=O)N[C@H](C(=O)N1CCC[C@H]1C(N)=O)[C@@H](C)O` (stereo partly drawn) [β-thyrocalcitonin] (H-CSNLSTCVLSAYWRNLNNFHRFSG[Met(O)]GFGPETP-NH2; disulfide 1-7), in “solubility”, the “solubility of the acetate” value is reported as “readily soluble” and the “solubility of the trichloracetate” value was “rather sparingly soluble”. Further, the “stability towards mild oxidation with performic acid” value in data set [1] is “stable”.

With `CSCC[C@H](NC(=O)CNC(=O)[C@H](CO)NC(=O)[C@H](Cc1ccccc1)NC(=O)[C@H](CCCNC(=N)N)NC(=O)[C@H](Cc1c[nH]cn1)NC(=O)[C@H](Cc1ccccc1)NC(=O)[C@H](CC(N)=O)NC(=O)[C@H](CC(N)=O)NC(=O)[C@H](CC(C)C)NC(=O)[C@H](CC(N)=O)NC(=O)[C@H](CCCNC(=N)N)NC(=O)[C@H](Cc1c[nH]c2ccccc12)NC(=O)[C@H](Cc1ccc(O)cc1)NC(=O)[C@H](C)NC(=O)[C@H](CO)NC(=O)[C@H](CC(C)C)NC(=O)[C@@H](NC(=O)[C@@H]1CSSC[C@H](N)C(=O)N[C@@H](CO)C(=O)N[C@@H](CC(N)=O)C(=O)N[C@@H](CC(C)C)C(=O)N[C@@H](CO)C(=O)N[C@@H]([C@@H](C)O)C(=O)N1)C(C)C)C(=O)NCC(=O)N[C@@H](Cc1ccccc1)C(=O)NCC(=O)N1CCC[C@H]1C(=O)N[C@@H](CCC(=O)O)C(=O)N[C@H](C(=O)N1CCC[C@H]1C(N)=O)[C@@H](C)O` [α-thyrocalcitonin] (H-CSNLSTCVLSAYWRNLNNFHRFSGMGFGPETP-NH2; disulfide 1-7), in the data set “solubility”, the “solubility of the acetate” value is “readily soluble” and the “solubility of the trichloracetate” value is “rather sparingly soluble”. The “stability towards mild oxidation with performic acid” value in data set [1] is listed as “becomes a more polar product”.

Source of the values: patent publication US4041022A, “Process for the manufacture of thyrocalcitonin” (Ciba-Geigy Corporation, priority 1967, dated 1977).
